Test results taken from US12404279B2, “Deubiquitinase inhibitors and methods of use thereof” (Molecure S.A., priority 2021, dated 2025).
Counter-ions that a name gives are not always drawn.

Biological target: full-length USP7 (Homo sapiens (Human), UniProt Q93009)
Assay: Enzymatic assay to determine IC50 of USP7 inhibitors (Ubiquitin-Rhodamine 110 cleavage)
Format: biochemical
Conditions: for inhibition at 1 µM: at 1 μM of the test compound, given where IC50 not determined yet, read-out: percent value of inhibition of USP7 activity; for IC50: 0.5 nM USP7, 0.5 μM Ubiquitin-Rhodamine 110, 45 min at 37° C.
In short: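 Enzyme: 0.5 nM full-length USP7 in HEPES pH 7.5 buffer with NaCl, DTT, BSA and Tween20, given 15 min at room temperature with DTT before compounds were added.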

Sequence of full-length USP7 (Q93009 whole entry): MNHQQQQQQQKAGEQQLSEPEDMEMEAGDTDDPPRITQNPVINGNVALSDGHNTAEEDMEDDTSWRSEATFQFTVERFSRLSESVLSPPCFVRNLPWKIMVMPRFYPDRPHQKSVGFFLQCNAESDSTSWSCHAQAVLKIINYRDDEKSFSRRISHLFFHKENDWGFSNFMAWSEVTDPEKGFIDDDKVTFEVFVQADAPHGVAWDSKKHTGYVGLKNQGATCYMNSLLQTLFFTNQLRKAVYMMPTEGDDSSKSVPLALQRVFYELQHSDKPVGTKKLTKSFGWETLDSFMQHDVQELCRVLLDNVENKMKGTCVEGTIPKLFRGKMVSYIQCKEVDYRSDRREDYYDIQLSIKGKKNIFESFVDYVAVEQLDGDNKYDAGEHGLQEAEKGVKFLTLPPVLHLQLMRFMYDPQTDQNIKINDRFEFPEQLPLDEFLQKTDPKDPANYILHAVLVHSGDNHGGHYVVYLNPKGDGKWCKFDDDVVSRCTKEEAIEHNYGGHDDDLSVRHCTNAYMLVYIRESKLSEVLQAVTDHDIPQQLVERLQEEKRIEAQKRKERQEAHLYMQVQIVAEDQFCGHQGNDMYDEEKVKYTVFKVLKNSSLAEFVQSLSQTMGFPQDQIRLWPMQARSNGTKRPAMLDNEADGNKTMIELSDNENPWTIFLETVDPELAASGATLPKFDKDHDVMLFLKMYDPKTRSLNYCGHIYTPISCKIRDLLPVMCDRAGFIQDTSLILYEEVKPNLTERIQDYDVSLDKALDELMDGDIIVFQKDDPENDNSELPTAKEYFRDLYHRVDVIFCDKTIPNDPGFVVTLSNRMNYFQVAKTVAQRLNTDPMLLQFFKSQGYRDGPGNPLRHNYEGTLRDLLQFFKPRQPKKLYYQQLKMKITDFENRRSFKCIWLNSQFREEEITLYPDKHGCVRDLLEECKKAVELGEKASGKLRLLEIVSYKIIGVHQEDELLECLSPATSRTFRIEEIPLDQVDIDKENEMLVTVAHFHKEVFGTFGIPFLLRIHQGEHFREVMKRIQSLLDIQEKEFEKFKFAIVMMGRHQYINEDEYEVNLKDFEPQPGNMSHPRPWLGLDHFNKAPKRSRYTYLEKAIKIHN

Row | SMILES | inhibition at 1 µM | IC50
1 | Cc1cc(C#N)nc(-c2ccnc3cc(CN4C(=O)C5C(C4=O)C5(C)C)sc23)c1C(=O)N1CC(N(C)C)C1 (stereo not shown) [Example 43, 6-(2-((6,6-dimethyl-2,4-dioxo-3-azabicyclo[3.1.0]hexan-3-yl)methyl)thieno[3,2-b]pyridin-7-yl)-5-(3-(dimethylamino)azetidine-1-carbonyl)-4-methylpicolinonitrile] | 50 to 70% | –
2 | Cc1cc(C#N)nc(-c2ccnc3cc(CN4C(=O)C5C(C4=O)C5(C)C)sc23)c1C(=O)N1CC[C@H](N(C)C)C1 (stereo partly drawn) [Example 44, 6-(2-((6,6-dimethyl-2,4-dioxo-3-azabicyclo[3.1.0]hexan-3-yl)methyl)thieno[3,2-b]pyridin-7-yl)-5-((S)-3-(dimethylamino)pyrrolidine-1-carbonyl)-4-methylpicolinonitrile hydrochloride] | – | 1000 to 10000 nM
3 | Cc1ccnc(-c2ccnc3cc(CN4C(=O)C5C(C4=O)C5(C)C)sc23)c1C(=O)N1CCNCC1 (stereo not shown) [Example 45, 6,6-dimethyl-3-((7-(4-methyl-3-(piperazine-1-carbonyl)pyridin-2-yl)thieno[3,2-b]pyridin-2-yl)methyl)-3-azabicyclo[3.1.0]hexane-2,4-dione hydrochloride] | < 20% | –
4 | Cc1ccnc(-c2ccnc3cc(CN4C(=O)C5C(C4=O)C5(C)C)sc23)c1CN1CCNCC1 (stereo not shown) [Example 46, 6,6-dimethyl-3-((7-(4-methyl-3-(piperazin-1-ylmethyl)pyridin-2-yl)thieno[3,2-b]pyridin-2-yl)methyl)-3-azabicyclo[3.1.0]hexane-2,4-dione hydrochloride] | < 20% | –
5 | Cc1ccnc(-c2ccnc3cc(CN4C(=O)C5C(C4=O)C5(C)C)sc23)c1C(=O)N1CCOCC1 (stereo not shown) [Example 48, 6,6-dimethyl-3-((7-(4-methyl-3-(morpholine-4-carbonyl)pyridin-2-yl)thieno[3,2-b]pyridin-2-yl)methyl)-3-azabicyclo[3.1.0]hexane-2,4-dione hydrochloride] | < 20% | –
6 | Cc1ccnc(-c2ccnc3cc(CN4C(=O)C5C(C4=O)C5(C)C)sc23)c1C(=O)N1CCC(F)(F)C1 (stereo not shown) [Example 49, 3-((7-(3-(3,3-difluoropyrrolidine-1-carbonyl)-4-methylpyridin-2-yl)thieno[3,2-b]pyridin-2-yl)methyl)-6,6-dimethyl-3-azabicyclo[3.1.0]hexane-2,4-dione hydrochloride] | < 20% | –
7 | Cc1ccnc(-c2ccnc3cc(CN4C(=O)C5C(C4=O)C5(C)C)sc23)c1C(=O)N1CC(F)(F)C1 (stereo not shown) [Example 50, 3-((7-(3-(3,3-difluoroazetidine-1-carbonyl)-4-methylpyridin-2-yl)thieno[3,2-b]pyridin-2-yl)methyl)-6,6-dimethyl-3-azabicyclo[3.1.0]hexane-2,4-dione hydrochloride] | < 20% | –
8 | Cc1cc(C#N)nc(-c2ccnc3cc(CN4C(=O)C5C(C4=O)C5(C)C)sc23)c1C(=O)N1CC(F)(F)C1 (stereo not shown) [Example 51, 5-(3,3-difluoroazetidine-1-carbonyl)-6-(2-((6,6-dimethyl-2,4-dioxo-3-azabicyclo[3.1.0]hexan-3-yl)methyl)thieno[3,2-b]pyridin-7-yl)-4-methylpicolinonitrile hydrochloride] | – | < 500 nM
9 | Cc1cc(C#N)nc(-c2ccnc3cc(CN4C(=O)C5C(C4=O)C5(C)C)sc23)c1C(=O)N1CCN(C)C[C@@H]1C (stereo partly drawn) [Example 52, 6-(2-((6,6-dimethyl-2,4-dioxo-3-azabicyclo[3.1.0]hexan-3-yl)methyl)thieno[3,2-b]pyridin-7-yl)-5-((S)-2,4-dimethylpiperazine-1-carbonyl)-4-methylpicolinonitrile dihydrochloride] | – | < 500 nM
10 | Cc1cc(C#N)nc(-c2ccnc3cc(CN4C(=O)C5C(C4=O)C5(C)C)sc23)c1C(=O)N1CCNC(C)(C)C1 (stereo not shown) [Example 53, 6-(2-((6,6-dimethyl-2,4-dioxo-3-azabicyclo[3.1.0]hexan-3-yl)methyl)thieno[3,2-b]pyridin-7-yl)-5-(3,3-dimethylpiperazine-1-carbonyl)-4-methylpicolinonitrile hydrochloride] | – | 1000 to 10000 nM
11 | Cc1cc(C#N)nc(-c2ccnc3cc(CN4C(=O)C5C(C4=O)C5(C)C)sc23)c1C(=O)N1CCNC[C@H]1C (stereo partly drawn) [Example 54, 6-(2-((6,6-dimethyl-2,4-dioxo-3-azabicyclo[3.1.0]hexan-3-yl)methyl)thieno[3,2-b]pyridin-7-yl)-4-methyl-5-((R)-2-methylpiperazine-1-carbonyl)picolinonitrile hydrochloride] | – | 500 to 1000 nM
12 | Cc1cc(C#N)nc(-c2ccnc3cc(CN4C(=O)C5C(C4=O)C5(C)C)sc23)c1C(=O)N1CCNCC1 (stereo not shown) [Example 55, 6-(2-((6,6-dimethyl-2,4-dioxo-3-azabicyclo[3.1.0]hexan-3-yl)methyl)thieno[3,2-b]pyridin-7-yl)-4-methyl-5-(piperazine-1-carbonyl)picolinonitrile hydrochloride] | – | < 500 nM
13 | Cc1cc(C#N)nc(-c2ccnc3cc(CN4C(=O)C5C(C4=O)C5(C)C)sc23)c1C(=O)NC1CNC1 (stereo not shown) [Example 56, N-(azetidin-3-yl)-6-cyano-2-(2-((6,6-dimethyl-2,4-dioxo-3-azabicyclo[3.1.0]hexan-3-yl)methyl)thieno[3,2-b]pyridin-7-yl)-4-methylnicotinamide hydrochloride] | – | 1000 to 10000 nM
14 | Cc1cc(C#N)nc(-c2ccnc3cc(CN4C(=O)C5C(C4=O)C5(C)C)sc23)c1C(=O)NC1CC(F)(F)C1 (stereo not shown) [Example 57, 6-cyano-N-(3,3-difluorocyclobutyl)-2-(2-((6,6-dimethyl-2,4-dioxo-3-azabicyclo[3.1.0]hexan-3-yl)methyl)thieno[3,2-b]pyridin-7-yl)-4-methylnicotinamide hydrochloride] | < 20% | –
15 | Cc1cc(C#N)nc(-c2ccnc3cc(CN4C(=O)C5C(C4=O)C5(C)C)sc23)c1C(=O)N1CCOCC1 (stereo not shown) [Example 58, 6-(2-((6,6-dimethyl-2,4-dioxo-3-azabicyclo[3.1.0]hexan-3-yl)methyl)thieno[3,2-b]pyridin-7-yl)-4-methyl-5-(morpholine-4-carbonyl)picolinonitrile hydrochloride] | – | 500 to 1000 nM
16 | Cc1cc(C#N)nc(-c2ccnc3cc(CN4C(=O)C5C(C4=O)C5(C)C)sc23)c1C(=O)N1CCC(F)(F)C1 (stereo not shown) [Example 59, 5-(3,3-difluoropyrrolidine-1-carbonyl)-6-(2-((6,6-dimethyl-2,4-dioxo-3-azabicyclo[3.1.0]hexan-3-yl)methyl)thieno[3,2-b]pyridin-7-yl)-4-methylpicolinonitrile hydrochloride] | – | < 500 nM
17 | CNCC(=O)Nc1c(-c2ccnc3cc(CN4C(=O)C5C(C4=O)C5(C)C)sc23)cc(C(F)(F)F)nc1C (stereo not shown) [Example 60, N-(4-(2-((6,6-dimethyl-2,4-dioxo-3-azabicyclo[3.1.0]hexan-3-yl)methyl)thieno[3,2-b]pyridin-7-yl)-2-methyl-6-(trifluoromethyl)pyridin-3-yl)-2-(methylamino)acetamide 2,2,2-trifluoroacetate] | – | > 10000 nM
18 | COCC(=O)Nc1c(-c2ccnc3cc(CN4C(=O)C5C(C4=O)C5(C)C)sc23)cc(C(F)(F)F)nc1C (stereo not shown) [Example 61, N-(4-(2-((6,6-dimethyl-2,4-dioxo-3-azabicyclo[3.1.0]hexan-3-yl)methyl)thieno[3,2-b]pyridin-7-yl)-2-methyl-6-(trifluoromethyl)pyridin-3-yl)-2-methoxyacetamide 2,2,2-trifluoroacetate] | – | > 10000 nM
19 | Cc1nc(C(F)(F)F)cc(-c2ccnc3cc(CN4C(=O)C5C(C4=O)C5(C)C)sc23)c1NC(=O)C(F)(F)F (stereo not shown) [Example 62, N-(4-(2-((6,6-dimethyl-2,4-dioxo-3-azabicyclo[3.1.0]hexan-3-yl)methyl)thieno[3,2-b]pyridin-7-yl)-2-methyl-6-(trifluoromethyl)pyridin-3-yl)-2,2,2-trifluoroacetamide 2,2,2-trifluoroacetate] | – | 1000 to 10000 nM
20 | Cc1nc(C(F)(F)F)cc(-c2ccnc3cc(CN4C(=O)C5C(C4=O)C5(C)C)sc23)c1NC(=O)c1cccnc1 (stereo not shown) [Example 63, N-(4-(2-((6,6-dimethyl-2,4-dioxo-3-azabicyclo[3.1.0]hexan-3-yl)methyl)thieno[3,2-b]pyridin-7-yl)-2-methyl-6-(trifluoromethyl)pyridin-3-yl)nicotinamide 2,2,2-trifluoroacetate] | – | > 10000 nM
21 | Cc1nc(C(F)(F)F)cc(-c2ccnc3cc(CN4C(=O)C5C(C4=O)C5(C)C)sc23)c1NC(=O)C1CNC1 (stereo not shown) [Example 66, N-(4-(2-((6,6-dimethyl-2,4-dioxo-3-azabicyclo[3.1.0]hexan-3-yl)methyl)thieno[3,2-b]pyridin-7-yl)-2-methyl-6-(trifluoromethyl)pyridin-3-yl)azetidine-3-carboxamide 2,2,2-trifluoroacetate] | – | 1000 to 10000 nM
22 | Cc1nc2c(-c3cc(Cl)cc(C)c3O[C@H]3CCCNC3)ccnc2[nH]1 [Example 67, (S)-7-(5-chloro-3-methyl-2-(piperidin-3-yloxy)phenyl)-2-methyl-3H-imidazo[4,5-b]pyridine hydrochloride] | < 20% | –
23 | Cc1cc(Cl)cc(-c2ccnc3c2nc(C)n3C)c1O[C@H]1CCCNC1 [Example 68, (S)-7-(5-chloro-3-methyl-2-(piperidin-3-yloxy)phenyl)-2,3-dimethyl-3H-imidazo[4,5-b]pyridine hydrochloride] | < 20% | –
24 | Cc1cc(Cl)cc(-c2ccnc3nc(C)n(C)c23)c1O[C@H]1CCCNC1 [Example 69, (S)-7-(5-chloro-3-methyl-2-(piperidin-3-yloxy)phenyl)-1,2-dimethyl-1H-imidazo[4,5-b]pyridine hydrochloride] | < 20% | –
25 | Cc1cc(C(F)(F)F)nc(-c2ccnc3cc(CN4C(=O)C5C(C4=O)C5(C)C)sc23)c1C(=O)NC1CNC1 (stereo not shown) [Example 70, N-(azetidin-3-yl)-2-(2-((6,6-dimethyl-2,4-dioxo-3-azabicyclo[3.1.0]hexan-3-yl)methyl)thieno[3,2-b]pyridin-7-yl)-4-methyl-6-(trifluoromethyl)nicotinamide dihydrochloride] | – | 500 to 1000 nM
